The text below walks through data of ChEMBL document CHEMBL3632528 (J Nat Prod, 2015).

The target of data set [1] is T1, Liver carboxylesterase 1 (Homo sapiens, UniProt P23141).
T1 sequence (P23141 whole entry): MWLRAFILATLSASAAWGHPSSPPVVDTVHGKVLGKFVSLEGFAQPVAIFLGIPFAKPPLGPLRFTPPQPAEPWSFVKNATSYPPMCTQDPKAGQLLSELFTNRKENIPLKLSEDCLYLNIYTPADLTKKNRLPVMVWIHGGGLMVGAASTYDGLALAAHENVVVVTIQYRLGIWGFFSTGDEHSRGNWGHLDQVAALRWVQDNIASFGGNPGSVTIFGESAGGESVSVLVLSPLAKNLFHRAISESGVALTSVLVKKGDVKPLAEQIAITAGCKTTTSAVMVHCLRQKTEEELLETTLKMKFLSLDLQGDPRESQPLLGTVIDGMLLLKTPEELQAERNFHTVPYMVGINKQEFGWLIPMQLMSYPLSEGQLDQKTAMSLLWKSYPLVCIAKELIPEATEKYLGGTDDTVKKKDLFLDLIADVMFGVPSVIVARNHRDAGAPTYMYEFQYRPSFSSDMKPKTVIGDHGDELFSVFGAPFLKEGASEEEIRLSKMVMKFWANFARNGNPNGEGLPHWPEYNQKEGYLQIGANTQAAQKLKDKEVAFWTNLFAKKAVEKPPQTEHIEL
Nature of the data set: Inhibition of human carboxylesterase 1 using 2-(2'-benzoyl-3'-methoxylphenyl)-benzothiazole as substrate at 0.1 to 200 uM by fluorescence assay.

In data set [2] the target is T2, Cocaine esterase (Homo sapiens, UniProt O00748).
T2 sequence (O00748 whole entry): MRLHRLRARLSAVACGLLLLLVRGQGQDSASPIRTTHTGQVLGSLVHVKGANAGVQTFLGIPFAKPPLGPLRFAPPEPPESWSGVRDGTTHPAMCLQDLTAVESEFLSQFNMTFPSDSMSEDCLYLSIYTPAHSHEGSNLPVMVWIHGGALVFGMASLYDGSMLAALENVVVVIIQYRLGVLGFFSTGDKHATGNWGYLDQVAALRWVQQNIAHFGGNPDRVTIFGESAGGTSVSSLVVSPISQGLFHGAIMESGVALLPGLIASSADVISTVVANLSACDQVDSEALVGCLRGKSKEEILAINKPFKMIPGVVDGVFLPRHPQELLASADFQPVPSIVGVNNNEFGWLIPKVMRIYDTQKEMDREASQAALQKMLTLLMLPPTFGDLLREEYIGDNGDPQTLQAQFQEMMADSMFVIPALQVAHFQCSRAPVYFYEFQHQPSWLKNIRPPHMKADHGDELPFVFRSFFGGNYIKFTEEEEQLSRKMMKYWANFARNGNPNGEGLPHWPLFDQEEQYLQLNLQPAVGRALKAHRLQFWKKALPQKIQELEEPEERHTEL
The data set is described as follows: Inhibition of human carboxylesterase 2 using 4-benzoyl-N-butyl-1,8-naphthalimide as substrate by fluorescence assay.

Data set [3] addresses T2, Cocaine esterase. Nature of the data set: […] inhibition of human carboxylesterase 2 using 4-benzoyl-N-butyl-1,8-naphthalimide as substrate by Dixon and Lineweaver-Burk plot analysis.

Regarding `C=C(C)[C@@H](O)[C@@H](O)C[C@@H](C)C1=C2CC[C@H]3[C@@]4(C)CCC(=O)C(C)(C)[C@@H]4CC[C@]3(C)[C@@]2(C)CC1`, the “inhibition (INH)” value in data set [1] is listed as “Not Active”.

For the compound `C[C@H](CC(=O)[C@H](O)C(C)(C)O)C1=C2C=C[C@H]3[C@@]4(C)CCC(=O)C(C)(C)[C@@H]4CC[C@]3(C)[C@@]2(C)CC1=O`, in data set [1], the “inhibition (INH)” value is “Not Active”.

In the case of `C=C(C)[C@@H](O)[C@@H](O)C[C@@H](C)C1=C2C=C[C@H]3[C@@]4(C)CCC(=O)C(C)(C)[C@@H]4CC[C@]3(C)[C@@]2(C)CC1=O`, the IC50 (usually the concentration that gives 50% inhibition) in data set [2] amounted to 8.68 µM. Besides, the “inhibition (INH)” value in data set [1] is listed as “Not Active”.

Take `CC(=O)O[C@@H](C[C@@H](C)C1=C2C=C[C@H]3[C@@]4(C)CCC(=O)C(C)(C)[C@@H]4CC[C@]3(C)[C@@]2(C)CC1=O)[C@H](O)C(C)(C)O`: in data set [1], the “inhibition (INH)” value was “Not Active”.

As for `C[C@H](C[C@H](O)[C@H](O)C(C)(C)O)C1=C2C=C[C@H]3[C@@]4(C)CCC(=O)C(C)(C)[C@@H]4CC(=O)[C@]3(C)[C@@]2(C)CC1=O`, the “inhibition (INH)” value in data set [1] is listed as “Not Active”.

On to `CC1(C)O[C@@H]1[C@@H](O)C[C@](C)(O)C1=C2C[C@H](O)[C@H]3[C@@]4(C)CCC(=O)C(C)(C)[C@@H]4CC[C@]3(C)[C@@]2(C)CC1=O`, for which the “inhibition (INH)” value in data set [1] is “Not Active”.

In the case of `CCOC(C)(C)[C@H](O)[C@@H](O)C[C@@H](C)C1=C2C[C@H](O)[C@H]3[C@@]4(C)CCC(=O)C(C)(C)[C@@H]4CC[C@]3(C)[C@@]2(C)CC1`, the IC50 in data set [2] is 4.72 µM. Moreover, the “inhibition (INH)” value in data set [1] is on record as “Not Active”.

On to `C[C@H](C[C@H](O)[C@@H](O)C(C)(C)O)C1=C2C[C@H](O)[C@H]3[C@@]4(C)CCC(=O)C(C)(C)[C@@H]4CC[C@]3(C)[C@@]2(C)C=C1`, for which, in data set [1], the “inhibition (INH)” value is “Not Active”.

Consider `C[C@H](CC[C@H](O)C(C)(C)O)[C@H]1CC[C@@]2(C)C1=CC=C1[C@]2(C)CC[C@H]2C(C)(C)C(=O)CC[C@]12C`, for which the IC50 in data set [2] was found to be 4.58 µM. For the same compound, the “inhibition (INH)” value in data set [1] is reported as “Not Active”.

As for `C[C@@H]1CC(=O)[C@@H](C(C)(C)O)O[C@H]2C[C@@]3(C)C(=C12)C=C[C@H]1[C@@]2(C)CCC(=O)C(C)(C)[C@@H]2CC[C@@]13C`, the “inhibition (INH)” value in data set [1] was “Not Active”.

In data set [2], `CC1=CC(=O)C[C@@]2(C)[C@H]1CC[C@@]1(C)[C@H]2[C@@H](O)CC2=C([C@H](C)C[C@H](O)[C@@H](O)C(C)(C)O)CC[C@@]21C` displayed an IC50 of 2.02 µM. Further, the Ki – broadly, the dissociation constant of the complex between target and ligand, obtained from inhibition or displacement – in data set [3] was 1760 nM. The “inhibition (INH)” value in data set [1] is on record as “Not Active”.

Turning to `CC(=O)C1=C2C=C[C@H]3[C@@]4(C)CCC(=O)C(C)(C)[C@@H]4CC[C@]3(C)[C@@]2(C)CC1=O`, the “inhibition (INH)” value in data set [1] is given as “Not Active”.

On to `CC(=O)O[C@@H]([C@@H](O)C[C@@H](C)C1=C2C[C@H](O)[C@H]3[C@@]4(C)CCC(=O)C(C)(C)[C@@H]4CC[C@]3(C)[C@@]2(C)CC1)C(C)(C)O`, for which, in data set [1], the “inhibition (INH)” value is listed as “Not Active”.

`C[C@H](C[C@H](O)[C@H](O)C(C)(C)O)C1=C2C=C[C@H]3[C@@]4(C)CCC(=O)C(C)(C)[C@@H]4CC[C@]3(C)[C@@]2(C)CC1=O`: in data set [1], the “inhibition (INH)” value is reported as “Not Active”.

`C[C@H](C[C@H](O)[C@@H](O)C(C)(C)O)C1=C2CC[C@H]3[C@@]4(C)CCC(=O)C(C)(C)[C@@H]4CC[C@]3(C)[C@@]2(C)CC1` yielded a half-inhibitory concentration (IC50) in data set [2] of 4.63 µM. Also, the “inhibition (INH)” value in data set [1] is “Not Active”.

Consider `CC(=O)O[C@H]1C[C@@H](C)C2=C3C[C@H](O)[C@H]4[C@@]5(C)CCC(=O)C(C)(C)[C@@H]5CC[C@]4(C)[C@@]3(C)C[C@@H]2O[C@@H]1C(C)(C)O`, for which, in data set [1], the “inhibition (INH)” value is “Not Active”.

For `C[C@@H]1C[C@@H]([C@@H](O)C(C)(C)O)O[C@H]2C[C@@]3(C)C(=C12)C=C[C@H]1[C@@]2(C)CCC(=O)C(C)(C)[C@@H]2CC[C@@]13C`, the “inhibition (INH)” value in data set [1] is listed as “Not Active”.

In data set [2], `CC(=O)O[C@H]([C@@H]1C[C@@H](C)C2=C3C=C[C@H]4[C@@]5(C)CCC(=O)C(C)(C)[C@@H]5CC[C@]4(C)[C@@]3(C)C[C@@H]2O1)C(C)(C)O` displayed a concentration for half-maximal inhibition (IC50) of 24.3 µM. For the same compound, the “inhibition (INH)” value in data set [1] is recorded as “Not Active”.

As for `C=C(C)[C@H](O)[C@@H]1C[C@@H](C)C2=C3C[C@H](O)[C@H]4[C@@]5(C)CCC(=O)C(C)(C)[C@@H]5CC[C@]4(C)[C@@]3(C)C[C@@H]2O1`, the “inhibition (INH)” value in data set [1] is reported as “Not Active”.

In turn, `C[C@H](C[C@H](O)[C@@H](O)C(C)(C)O)C1=C2C[C@@H]3OC(=O)C[C@@]4(C)[C@H](C(C)(C)C(=O)O)CC[C@@](C)([C@@H]34)[C@@]2(C)CC1` registered a half-inhibitory concentration (IC50) in data set [2] of 20.9 µM. Further, the “inhibition (INH)” value in data set [1] is “Not Active”.

Turning to `C[C@H](C[C@H](O)[C@@H](O)C(C)(C)O)C1=C2C[C@H](O)[C@H]3[C@@]4(C)CCC(=O)C(C)(C)[C@@H]4CC[C@]3(C)[C@@]2(C)CC1` [ALISOL A], the “inhibition (INH)” value in data set [1] is recorded as “Not Active”.
